According to patent US20230346785A1, “4-PYRROLIDIN-1-Yl-5-P-TOLYL-THIENO[2,3-D] PYRIMIDINE FOR USE IN THE TREATMENT OF AGING-ASSOCIATED AND PREMATURE AGING DISEASES THROUGH RESTORED CHROMOSOMAL STABILITY AND INHIBITION OF CELLULAR SENESCENCE” (IBMC - INSTITUTO DE BIOLOGIA MOLECULAR E CELULAR, priority 2020, published 2023):

What was measured:
Format in all cases: cell-based
[1] = tested on: elderly human dermal fibroblasts (HDF); assay: 53BP1/p21 double immunostaining senescence biomarkers; conditions: 1 µM
Procedure: (§1) Human dermal fibroblasts (HDFs) retrieved from skin samples of neonatal (No. GM21811, Coriell Institute; No. DFM021711A, Zen Bio) and octogenarian (No. AG07135; AG13993; AG09271; AG10884; all from Coriell Institute) were used. All donors were reported as “healthy”. For all experiments, HDFs were seeded at 1x10^4 cells per cm2 of growth area in minimal essential medium Eagle-Earle (MEM) supplemented with 15% fetal bovine serum (FBS), 2 mM L-glutamine, and 1x antibiotic-antimycotic (all from Gibco, Thermo Fisher Scientific). Only early passage dividing fibroblasts (up to passage 3-5) with cumulative population doubling level PDL < 24 were used.
For immunofluorescence, fibroblasts were grown on sterilized glass coverslips coated with 50 µg/ml fibronectin (F1141, Sigma-Aldrich) and fixed with 4% paraformaldehyde in PBS for 20 min. […]
(§2) For image analysis, both live-cell phenotypes (mitotic duration, lagging chromosomes) and fixed-cell experiments (protein intensity, k-fiber intensity, KT distances, FISH, MN counts, cGAS positivity and SA biomarkers) were blindly quantified using ImageJ/Fiji software. […] DNA aggregates co-localizing with cGAS were scored as MN positive for cGAS. For the analysis of SA biomarkers (53bpl/p21 and SA-β-galactosidase), fluorescence intensity thresholds were set and used consistently for all samples within each experiment. […]

[2] = tested on: neonatal (N) human dermal fibroblasts (HDF); assay: Mitotic duration by long-term phase-contrast time-lapse microscopy, neonatal cells; conditions: 1 µM, 24 hrs (FIG. 4A)
Procedure: as §1, §2
(§3) FIG. 4: Small molecule agonist of MCAK activity UMK57 rescues age-associated CIN and delays senescence. […] (D) Aneusomy index of chromosomes 7, 12 and 18 measured by interphase FISH analysis. […]

[3] = tested on: elderly human dermal fibroblasts (HDF); assay: Interphase FISH aneusomy index of chromosomes 7, 12 and 18; conditions: 1 µM
Procedure: as §1
For FISH, MN counts, cGAS immunofluorescence and SA biomarkers, images were captured with the IN Cell Analyzer 2000 (GE Healthcare, UK) equipped with a Photometrics CoolSNAP K4 camera and driven by the GE IN Cell Analyzer 2000 v5.2 software, using a Nikon 20x/0.45 NA Plan Fluor objective and a Nikon 40x/0.95 NA Plan Fluor objective, respectively.
1 µM of UMK57 was used to enhance kinesin-13 activity during the time periods indicated for each experiment.
(§4) FISH was used to score aneusomy indexes (Interphase FISH; FIGS. 4D, 5C) and chromosome mis-segregation (MS) rates. MS rates were scored by Cyto-D FISH (FIGS. 4E and 5D), or by FISH on STLC-washed-out fibroblasts (FIGS. 1G,H). […]

[4] = tested on: elderly human dermal fibroblasts (HDF); assay: Mitotic duration by long-term phase-contrast time-lapse microscopy, elderly cells
Procedure: as §1, §2, §3

[5] = tested on: elderly human dermal fibroblasts (HDF); assay: SA-β-galactosidase activity assay; conditions: 1 µM
Procedure: as §1, §2

[6] = tested on: elderly human dermal fibroblasts (HDF); assay: Micronuclei (MN) counts; conditions: 1 µM, 24-hour exposure (FIG. 4F)
Procedure: as §1, §2

[7] = tested on: elderly human dermal fibroblasts (HDF); assay: Calcium-stable k-fiber intensity analysis in metaphase; conditions: 1 µM
Procedure: Human dermal fibroblasts (HDFs) retrieved from skin samples of neonatal (No. GM21811, Coriell Institute; No. DFM021711A, Zen Bio) and octogenarian (No. AG07135; AG13993; AG09271; AG10884; all from Coriell Institute) were used. All donors were reported as “healthy”. For all experiments, HDFs were seeded at 1x10^4 cells per cm2 of growth area in minimal essential medium Eagle-Earle (MEM) supplemented with 15% fetal bovine serum (FBS), 2 mM L-glutamine, and 1x antibiotic-antimycotic (all from Gibco, Thermo Fisher Scientific). Only early passage dividing fibroblasts (up to passage 3-5) with cumulative population doubling level PDL < 24 were used. […]
In fluorescence microscopy, cells with calcium-stabilized k-fibers or stained for specific kinetochore/centromere-bound proteins (Aurora B/Aim-1, Hec1/Ndc80, MCAK, Plk1, pAuroraB T232 and ACA) were imaged using a Zeiss AxioImager Z1 (Carl Zeiss, Oberkochen, Germany) motorized upright epifluorescence microscope, equipped with an Axiocam MR camera and operated by the Zeiss Axiovision v4.7 software. […]
For image analysis, both live-cell phenotypes (mitotic duration, lagging chromosomes) and fixed-cell experiments (protein intensity, k-fiber intensity, KT distances, FISH, MN counts, cGAS positivity and SA biomarkers) were blindly quantified using ImageJ/Fiji software. […] DNA aggregates co-localizing with cGAS were scored as MN positive for cGAS. […]

[8] = tested on: elderly human dermal fibroblasts (HDF); assay: Cyto-D FISH chromosome mis-segregation in cytokinesis-blocked binucleated (BN) cells; conditions: 1 µM
Procedure: as §1
Proteasome inhibitor MG-132 (474790, EMD Millipore) was used at 5 µM for 2 hrs to arrest cells at the metaphase stage. Cytochalasin D (C8273, Sigma-Aldrich) was used at 1 µM for 24 hrs to block cytokinesis. Fibroblasts were treated with 2.5 µM STLC (2191, TOCRIS) for 5 hrs to inhibit kinesin-5 activity and induce monopolar spindles, followed by a washout into fresh medium with 500 nM of Aurora kinase B inhibitor ZM447439 (S1103, Selleckchem) to potentiate chromosome segregation errors. […]
as §4

Cc1ccc(-c2csc3ncnc(N4CCCC4)c23)cc1 [UMK57, 4-Pyrrolidin-1-yl-5-p-tolyl-thieno[2,3-d] pyrimidine]
percentage of cells exhibiting the senescence biomarkers 53bp1+p21 ([1]; 24-hour treatment (FIG. 4G)): partially rescue
senescence markers: 53BP1/p21 positive cells ([1]; 96 hrs (FIG. 5E)): partial rescue
effect on the mitotic progression of neonatal cultures [2]: no noticeable effect
levels of aneuploidy (aneusomy index, interphase FISH) ([3]; 24 hrs (FIG. 4D)): decreases the levels of aneuploidy
aneuploidy (interphase FISH) ([3]; 96 hours (FIG. 5C)): inhibited
mitotic delay of elderly cells ([4]; 1 µM, 96-hour treatment (FIG. 5A)): rescued
concentration sufficient to rescue the increased mitotic duration in elderly cells ([4]; increasing concentrations, 24-hour time-lapse (FIG. 4A)): 1 µM
percentage of cells exhibiting SA-β-galactosidase activity ([5]; 24-hour treatment (FIG. 4H)): partially rescue
senescence markers: SA-β-gal positive cells ([5]; 96 hrs (FIG. 5F)): partial rescue
MN (micronuclei) levels [6]: partly decreased
number of stable k-MT attachments in metaphase (calcium-stable k-fiber intensity) ([7]; 24 hrs (FIG. 4B,C)): decreases the number of stable k-MT attachments in metaphase
k-fiber intensity levels in metaphase ([7]; 96 hours (FIG. 5B)): decreased k-fiber intensity levels
chromosome mis-segregation rate in binucleated (BN) cells ([8]; 24 hrs, cytochalasin D (FIG. 4E)): decreases
chromosome mis-segregation (BN cells FISH) ([8]; 96 hours (FIG. 5D)): inhibited
